Assay results: ChEMBL document CHEMBL1133215, “Natural and synthetic analogues of actinomycin D as Grb2-SH2 domain blockers” (Bioorg Med Chem Lett, 2000)
The source made the active and inactive calls. The rule behind the calls is not given here. Numbered stars: 1 amine (or outer) side, 2 acyl side, 3 side chain; on linkers, the order of the positions; unused ones are H or OH. Bridge positions count the residues as written; N and C are the ends. Square brackets hold non-standard residues; d marks the D form. Peptide text beside a SMILES is read from it. I, II: the chains in the order shown. Actinocin(1to9) = Cc1c2oc3c(C)ccc(C(=O)[*:2])c3nc-2c(C(=O)[*:1])c(N)c1=O; NMeV = CN[C@H](C(=O)O)C(C)C; Sar = CNCC(=O)O

Key:
[1] = target: Growth factor receptor-bound protein 2 (Mus musculus, UniProt Q60631); assay: In vitro binding assay of Shc-derived phosphopeptide to Growth factor receptor bound protein 2 SH2 in B104-1-1 cells was determined; type: cell-based
Sequence of Growth factor receptor-bound protein 2 (Q60631 whole entry): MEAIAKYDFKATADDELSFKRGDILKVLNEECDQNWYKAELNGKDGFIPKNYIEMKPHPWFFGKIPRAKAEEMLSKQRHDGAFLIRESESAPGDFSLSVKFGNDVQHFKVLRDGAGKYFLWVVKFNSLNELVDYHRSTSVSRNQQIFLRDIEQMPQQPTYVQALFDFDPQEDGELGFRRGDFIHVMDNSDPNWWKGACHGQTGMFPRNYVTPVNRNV

[2] = target: Growth factor receptor-bound protein 2 (Mus musculus) (UniProt Q60631); assay: In vitro inhibitory activity against Shc/Grb2 interactions in B104-1-1 cells at 2 uM; type: functional, cell-based
Sequence of Growth factor receptor-bound protein 2 (Mus musculus) (Q60631 whole entry): as above

[3] = target: Growth factor receptor-bound protein 2 (Mus musculus) (UniProt Q60631); assay: In vitro inhibitory activity against Shc/Grb2 interactions in B104-1-1 cells at 5 uM; type: functional, cell-based
B104 [4] = assay: Growth inhibitory activity was tested against B104-1-1 cells; type: functional, Mus musculus
B104 [5] = assay: Growth inhibitory activity against B104-1-1 cells; Not active; type: functional, cell-based; details: Mus musculus

Row | IC50 [1] [nM] | inhibition [2] [%] | inhibition [3] [%] | SMILES | GI50 (B104 [4]) [nM] | GI50 (B104 [5])
1 | – | 84.3 | 90.7 | Cc1c2oc3c(C)ccc(C(=O)N[C@@H]4C(=O)N[C@H](Cc5ccc(O)cc5)C(=O)N5CCC[C@H]5C(=O)N(C)CC(=O)N[C@@H](C(C)C)C(=O)O[C@@H]4C)c3nc-2c(C(=O)N[C@@H]2C(=O)N[C@H](Cc3ccc(O)cc3)C(=O)N3CCC[C@H]3C(=O)N(C)CC(=O)N[C@@H](C(C)C)C(=O)O[C@@H]2C)c(N)c1=O (stereo in doubt; 1) [listing 1 of 2 here] | – | inactive
2 | 1500 | 69.7 | 80.6 | COc1ccc(C[C@H]2NC(=O)[C@@H](NC(=O)c3c4nc5c(C(=O)N[C@@H]6C(=O)N[C@H](Cc7ccc(OC)cc7)C(=O)N7CCC[C@H]7C(=O)N(C)CC(=O)N[C@@H](C(C)C)C(=O)O[C@@H]6C)ccc(C)c5oc-4c(C)c(=O)c3N)[C@@H](C)OC(=O)[C@H](C(C)C)NC(=O)CN(C)C(=O)[C@@H]3CCCN3C2=O)cc1 | 10 | –
3 | 2000 | 46.9 | 73 | COc1ccc(C[C@H]2NC(=O)CN(C)C(=O)[C@@H]3CCCN3C(=O)[C@@H](C(C)C)NC(=O)[C@@H](NC(=O)c3c4nc5c(C(=O)N[C@@H]6C(=O)N[C@H](C(C)C)C(=O)N7CCC[C@H]7C(=O)N(C)CC(=O)N[C@H](Cc7ccc(OC)cc7)C(=O)O[C@@H]6C)ccc(C)c5oc-4c(C)c(=O)c3N)[C@@H](C)OC2=O)cc1 | – | –
4 | 1200 | 73.6 | 82.8 | Cc1c2oc3c(C)ccc(C(=O)N[C@@H]4C(=O)N[C@H](Cc5ccccc5)C(=O)N5CCC[C@H]5C(=O)N(C)CC(=O)N[C@@H](C(C)C)C(=O)O[C@@H]4C)c3nc-2c(C(=O)N[C@@H]2C(=O)N[C@H](Cc3ccccc3)C(=O)N3CCC[C@H]3C(=O)N(C)CC(=O)N[C@@H](C(C)C)C(=O)O[C@@H]2C)c(N)c1=O | 8 | –
5 | – | 75.9 | 89.7 | Cc1c2oc3c(C)ccc(C(=O)N[C@@H]4C(=O)N[C@H](C(C)C)C(=O)N5CCC[C@H]5C(=O)N(C)CC(=O)N[C@@H](Cc5ccc(O)cc5)C(=O)O[C@@H]4C)c3nc-2c(C(=O)N[C@@H]2C(=O)N[C@H](C(C)C)C(=O)N3CCC[C@H]3C(=O)N(C)CC(=O)N[C@@H](Cc3ccc(O)cc3)C(=O)O[C@@H]2C)c(N)c1=O (stereo in doubt; 10) [listing 2 of 2 here] | – | –
6 | 4500 | – | – | Cc1c2oc3c(C)ccc(C(=O)N[C@@H]4C(=O)N[C@H](Cc5ccc(O)cc5)C(=O)N5CCC[C@H]5C(=O)N(C)CC(=O)N[C@@H](C(C)C)C(=O)O[C@@H]4C)c3nc-2c(C(=O)N[C@@H]2C(=O)N[C@H](Cc3ccc(O)cc3)C(=O)N3CCC[C@H]3C(=O)N(C)CC(=O)N[C@@H](C(C)C)C(=O)O[C@@H]2C)c(N)c1=O (stereo in doubt; 7) [listing 1 of 2 here] | – | –
7 | > 10000 | – | – | Cc1c2oc3c(C)ccc(C(=O)N[C@@H]4C(=O)N[C@H](C(C)C)C(=O)N5CCC[C@H]5C(=O)N(C)CC(=O)N[C@@H](Cc5ccc(O)cc5)C(=O)O[C@@H]4C)c3nc-2c(C(=O)N[C@@H]2C(=O)N[C@H](C(C)C)C(=O)N3CCC[C@H]3C(=O)N(C)CC(=O)N[C@@H](Cc3ccc(O)cc3)C(=O)O[C@@H]2C)c(N)c1=O (stereo in doubt; 8) [listing 2 of 2 here] | – | –
8 | – | 42.9 | 56.6 | Cc1c2oc3c(C)ccc(C(=O)N[C@@H]4C(=O)N[C@H](Cc5ccc(O)cc5)C(=O)N5CCC[C@H]5C(=O)N(C)CC(=O)N[C@@H](C(C)C)C(=O)O[C@@H]4C)c3nc-2c(C(=O)N[C@@H]2C(=O)N[C@H](Cc3ccc(O)cc3)C(=O)N3CCC[C@H]3C(=O)N(C)CC(=O)N[C@@H](C(C)C)C(=O)O[C@@H]2C)c(N)c1=O (stereo in doubt; 7) [listing 2 of 2 here] | – | –
9 | 500 | – | – | Cc1c2oc3c(C)ccc(C(=O)N[C@@H]4C(=O)N[C@H](Cc5ccc(O)cc5)C(=O)N5CCC[C@H]5C(=O)N(C)CC(=O)N[C@@H](C(C)C)C(=O)O[C@@H]4C)c3nc-2c(C(=O)N[C@@H]2C(=O)N[C@H](Cc3ccc(O)cc3)C(=O)N3CCC[C@H]3C(=O)N(C)CC(=O)N[C@@H](C(C)C)C(=O)O[C@@H]2C)c(N)c1=O (stereo in doubt; 1) [listing 2 of 2 here] | – | –
10 | 800 | – | – | Cc1c2oc3c(C)ccc(C(=O)N[C@@H]4C(=O)N[C@H](C(C)C)C(=O)N5CCC[C@H]5C(=O)N(C)CC(=O)N[C@H](Cc5ccc(O)cc5)C(=O)O[C@@H]4C)c3nc-2c(C(=O)N[C@@H]2C(=O)N[C@H](C(C)C)C(=O)N3CCC[C@H]3C(=O)N(C)CC(=O)N[C@H](Cc3ccc(O)cc3)C(=O)O[C@@H]2C)c(N)c1=O (stereo in doubt; 12) [listing 2 of 2 here] | – | –
11 | – | 3.5 | 27.4 | Cc1c2oc3c(C)ccc(C(=O)N[C@@H]4C(=O)N[C@H](C(C)C)C(=O)N5CCC[C@H]5C(=O)N(C)CC(=O)N[C@H](Cc5ccc(O)cc5)C(=O)O[C@@H]4C)c3nc-2c(C(=O)N[C@@H]2C(=O)N[C@H](C(C)C)C(=O)N3CCC[C@H]3C(=O)N(C)CC(=O)N[C@H](Cc3ccc(O)cc3)C(=O)O[C@@H]2C)c(N)c1=O (stereo in doubt; 5) [listing 2 of 2 here] | – | inactive
12 | 2000 | 55.1 | 73.8 | COc1ccc(C[C@@H]2NC(=O)CN(C)C(=O)[C@@H]3CCCN3C(=O)[C@@H](C(C)C)NC(=O)[C@@H](NC(=O)c3c4nc5c(C(=O)N[C@@H]6C(=O)N[C@H](C(C)C)C(=O)N7CCC[C@H]7C(=O)N(C)CC(=O)N[C@@H](Cc7ccc(OC)cc7)C(=O)O[C@@H]6C)ccc(C)c5oc-4c(C)c(=O)c3N)[C@@H](C)OC2=O)cc1 | – | –

The next lines start with the compound.

Row | SMILES | IC50 [1] [nM] | inhibition [2] [%] | inhibition [3] [%] | GI50 (B104 [4]) [nM] | GI50 (B104 [5])
13 | Cc1c2oc3c(C)ccc(C(=O)N[C@@H]4C(=O)N[C@H](C(C)C)C(=O)N5CCC[C@H]5C(=O)N(C)CC(=O)N[C@@H](Cc5ccc(O)cc5)C(=O)O[C@@H]4C)c3nc-2c(C(=O)N[C@@H]2C(=O)N[C@H](C(C)C)C(=O)N3CCC[C@H]3C(=O)N(C)CC(=O)N[C@@H](Cc3ccc(O)cc3)C(=O)O[C@@H]2C)c(N)c1=O (stereo in doubt; 10) [listing 1 of 2 here] | 800 | – | – | – | –
14 | Cc1c2oc3c(C)ccc(C(=O)N[C@@H]4C(=O)N[C@H](C(C)C)C(=O)N5CCC[C@H]5C(=O)N(C)CC(=O)N[C@H](Cc5ccc(O)cc5)C(=O)O[C@@H]4C)c3nc-2c(C(=O)N[C@@H]2C(=O)N[C@H](C(C)C)C(=O)N3CCC[C@H]3C(=O)N(C)CC(=O)N[C@H](Cc3ccc(O)cc3)C(=O)O[C@@H]2C)c(N)c1=O (stereo in doubt; 12) [listing 1 of 2 here] | – | 79.9 | 90.2 | – | –
15 | CC[C@@H](C)[C@H]1NC(=O)CN(C)C(=O)[C@@H]2CCCN2C(=O)[C@@H]([C@H](C)CC)NC(=O)[C@@H](NC(=O)c2c3nc4c(C(=O)N[C@@H]5C(=O)N[C@H]([C@H](C)CC)C(=O)N6CCC[C@H]6C(=O)N(C)CC(=O)N[C@H]([C@H](C)CC)C(=O)O[C@@H]5C)ccc(C)c4oc-3c(C)c(=O)c2N)[C@@H](C)OC1=O | 7600 | 15.1 | 25.3 | 1 | –
16 | CC[C@@H](C)[C@H]1NC(=O)[C@@H](NC(=O)c2c3nc4c(C(=O)N[C@@H]5C(=O)N[C@H]([C@H](C)CC)C(=O)N6CCC[C@H]6C(=O)N(C)CC(=O)N[C@@H](C(C)C)C(=O)O[C@@H]5C)ccc(C)c4oc-3c(C)c(=O)c2N)[C@@H](C)OC(=O)[C@H](C(C)C)NC(=O)CN(C)C(=O)[C@@H]2CCCN2C1=O | 5900 | 30.9 | 40.8 | 0.8 | –
17 | Cc1c2oc3c(C)ccc(C(=O)N[C@@H]4C(=O)N[C@H](C(C)C)C(=O)N5CCC[C@H]5C(=O)N(C)CC(=O)N[C@@H](Cc5ccc(O)cc5)C(=O)O[C@@H]4C)c3nc-2c(C(=O)N[C@@H]2C(=O)N[C@H](C(C)C)C(=O)N3CCC[C@H]3C(=O)N(C)CC(=O)N[C@@H](Cc3ccc(O)cc3)C(=O)O[C@@H]2C)c(N)c1=O (stereo in doubt; 8) [listing 1 of 2 here] | – | 15.9 | 28.5 | – | –
18 | Cc1c2oc3c(C)ccc(C(=O)N[C@@H]4C(=O)N[C@H](C(C)C)C(=O)N5CCC[C@H]5C(=O)N(C)CC(=O)N[C@H](Cc5ccc(O)cc5)C(=O)O[C@@H]4C)c3nc-2c(C(=O)N[C@@H]2C(=O)N[C@H](C(C)C)C(=O)N3CCC[C@H]3C(=O)N(C)CC(=O)N[C@H](Cc3ccc(O)cc3)C(=O)O[C@@H]2C)c(N)c1=O (stereo in doubt; 5) [listing 1 of 2 here] | > 10000 | – | – | – | –
19 | Cc1c2oc3c(C)ccc(C(=O)N[C@@H]4C(=O)N[C@H](C(C)C)C(=O)N5CCC[C@H]5C(=O)N(C)CC(=O)N(C)[C@@H](C(C)C)C(=O)O[C@@H]4C)c3nc-2c(C(=O)N[C@@H]2C(=O)N[C@H](C(C)C)C(=O)N3CCC[C@H]3C(=O)N(C)CC(=O)N(C)[C@@H](C(C)C)C(=O)O[C@@H]2C)c(N)c1=O [DACTINOMYCIN] (I: T[dV]P[Sar][NMeV] / II: T[dV]P[Sar][NMeV]; ester I:1-I:C, II:1-II:C; linker I:N-II:N via Actinocin(1to9)) | 5000 | 40.1 | 50.5 | 0.7 | –
20 | Cc1c2oc3c(C)ccc(C(=O)N[C@@H]4C(=O)N[C@H](C(C)C)C(=O)N5CCC[C@H]5C(=O)N(C)CC(=O)N[C@@H](Cc5ccccc5)C(=O)O[C@@H]4C)c3nc-2c(C(=O)N[C@@H]2C(=O)N[C@H](C(C)C)C(=O)N3CCC[C@H]3C(=O)N(C)CC(=O)N[C@@H](Cc3ccccc3)C(=O)O[C@@H]2C)c(N)c1=O | 1800 | 56.8 | 78.8 | – | –
21 | Cc1c2oc3c(C)ccc(C(=O)N[C@@H]4C(=O)N[C@H](C(C)C)C(=O)N5CCC[C@H]5C(=O)N(C)CC(=O)N[C@H](Cc5ccccc5)C(=O)O[C@@H]4C)c3nc-2c(C(=O)N[C@@H]2C(=O)N[C@H](C(C)C)C(=O)N3CCC[C@H]3C(=O)N(C)CC(=O)N[C@H](Cc3ccccc3)C(=O)O[C@@H]2C)c(N)c1=O | 900 | 75.1 | 87.7 | 3 | –
22 | Cc1c2oc3c(C)ccc(C(=O)N[C@@H]4C(=O)N[C@H](C(C)C)C(=O)N5CCC[C@H]5C(=O)N(C)CC(=O)N[C@H](C(C)C)C(=O)O[C@@H]4C)c3nc-2c(C(=O)N[C@@H]2C(=O)N[C@H](C(C)C)C(=O)N3CCC[C@H]3C(=O)N(C)CC(=O)N[C@H](C(C)C)C(=O)O[C@@H]2C)c(N)c1=O | 1000 | 72 | 86 | 3 | –
